The results in this text go back to patent EP0877740B1, “THIOL DERIVATIVES WITH METALLOPEPTIDASE INHIBITORY ACTIVITY” (ZAMBON GROUP S.p.A., priority 1995, dated 1997).

The target of the assay is T1, ACE (Oryctolagus cuniculus, UniProt P12822).
T1 construct: ACE (250 mU/ml purified by lung rabbit, EC 3.4.15.1 SIGMA); purchased SIGMA; host or cells: rabbit lung (tissue-purified)
T1 sequence (P12822 34-1310): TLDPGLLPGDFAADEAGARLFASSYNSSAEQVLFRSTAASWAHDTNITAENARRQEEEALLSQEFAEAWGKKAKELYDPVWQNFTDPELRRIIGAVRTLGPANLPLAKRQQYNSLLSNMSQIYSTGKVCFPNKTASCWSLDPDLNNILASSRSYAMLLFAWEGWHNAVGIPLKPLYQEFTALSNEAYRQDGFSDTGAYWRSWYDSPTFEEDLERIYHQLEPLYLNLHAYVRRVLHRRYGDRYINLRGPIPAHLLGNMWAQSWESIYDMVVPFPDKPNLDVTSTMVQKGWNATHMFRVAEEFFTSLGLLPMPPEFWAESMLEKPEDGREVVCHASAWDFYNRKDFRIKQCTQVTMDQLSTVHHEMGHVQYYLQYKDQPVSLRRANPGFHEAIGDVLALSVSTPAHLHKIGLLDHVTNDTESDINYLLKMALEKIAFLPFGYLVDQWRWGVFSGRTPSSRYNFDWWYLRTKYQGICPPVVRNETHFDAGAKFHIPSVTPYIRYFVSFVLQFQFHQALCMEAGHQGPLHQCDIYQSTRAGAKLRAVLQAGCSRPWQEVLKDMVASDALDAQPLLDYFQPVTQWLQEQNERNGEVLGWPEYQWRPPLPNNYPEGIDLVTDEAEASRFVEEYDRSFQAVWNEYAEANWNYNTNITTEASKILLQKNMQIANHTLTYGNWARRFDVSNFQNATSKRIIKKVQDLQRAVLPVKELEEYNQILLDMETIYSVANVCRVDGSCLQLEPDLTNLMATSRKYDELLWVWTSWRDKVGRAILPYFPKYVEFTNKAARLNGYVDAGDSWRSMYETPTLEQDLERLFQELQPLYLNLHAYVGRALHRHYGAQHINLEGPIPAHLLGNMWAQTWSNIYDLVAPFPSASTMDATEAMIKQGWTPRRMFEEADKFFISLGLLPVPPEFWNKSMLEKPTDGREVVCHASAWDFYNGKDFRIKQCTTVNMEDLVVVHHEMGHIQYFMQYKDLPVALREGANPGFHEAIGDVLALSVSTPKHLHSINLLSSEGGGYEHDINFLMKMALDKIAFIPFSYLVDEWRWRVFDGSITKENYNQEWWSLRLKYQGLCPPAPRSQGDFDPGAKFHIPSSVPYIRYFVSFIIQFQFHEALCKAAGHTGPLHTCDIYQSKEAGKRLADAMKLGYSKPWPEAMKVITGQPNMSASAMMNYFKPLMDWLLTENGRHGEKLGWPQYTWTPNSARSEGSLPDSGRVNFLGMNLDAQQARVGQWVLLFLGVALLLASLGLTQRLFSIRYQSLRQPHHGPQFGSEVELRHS
Nature of the assay: In vitro ACE-inhibitory activity (FAPGG substrate, spectrophotometric). It counts as biochemical. The following applies: ACE purified by lung rabbit, FAPGG 0.8 mM, 37°C. As for the experimental part: […] of ACE (250 mU/ml purified by lung rabbit, EC 3.4.15.1 SIGMA) were preincubated with 50 µl of the compound of formula I or of the reference compound or related vehicle in thermostated cuvettes at 37°C.
The reaction was started by adding furylacryloylphenylalanylglycylglycine 0.8 mM (FAPGG-SIGMA).
Contemporaneously, by using a Beckman DU-50 spectrophotometer provided with a program for calculating delta A/minutes and regression coefficients of the enzyme kinetics curves, the absorbance at 340 nm was recorded in continuo for 5 minutes.
The percentage of the enzyme inhibition in the preparations treated with the compounds of formula I or with the comparative compounds with respect to the untreated preparations was expressed as IC50 (nM) value.

Compound `O=C(N[C@@H](Cc1ccc(-c2nccs2)cc1)C(=O)O)[C@@H](CS)Cc1ccccc1` [Compound 16, N-[(2S)-3-mercapto-2-phenylmethylpropionyl]-4-(2-thiazolyl)-L-phenylalanine] displayed an IC50 of 3.2 nM.
